Measured values reported in US20230255965A1, “TRPV4 INHIBITOR AS A THERAPEUTIC AGENT FOR OCULAR DISEASES” (RaQualia Pharma Inc., priority 2020, published 2023).
Read-outs that look alike come from different tables or passages of the source.

Assays:
[1] = system: human retinal microvascular endothelial cells (HRMECs); assay: Cell permeability using human retinal microvascular endothelial cells, transendothelial electrical resistance (TEER); format: cell-based; settings: for inhibition at 10 µM: Homo sapiens, HRMEC, read-out: inhibition rate of increased vascular permeability (TEER); for change of transepithelial electrical resistance (TEER values): 24 hours after addition
Protocol: Human retinal microvascular endothelial cells (HRMECs) are seeded onto Transwell inserts at a density of 1.0×10^5 cells/mL. The medium is changed every other day and the cells are cultured for 7 days. Transendothelial electrical resistance (TEER) is measured using a measurement device and cup-shaped electrode (Endohm-6; World Precision Instruments, USA). One hour after the addition of a TRPV4 inhibitor (final concentration: 1 μM, 10 μM) or buffer for evaluation to cells, VEGF (final concentration: 10 ng/mL) or GSK1016790A, a TRPV4 agonist (final concentration: 10 nM) is added, and 24 hours after the addition, transepithelial electrical resistance values (TEER values) is measured 24 hours after addition. The transepithelial electrical resistance value (TEER value) is an index for evaluating barrier functions such as tight junctions of cells.

[2] = system: mouse retinal vein occlusion model; assay: Histological evaluation for retinal vein occlusion: thickness of the retinal inner nuclear layer (INL), HE staining; format: in vivo; settings: single intravitreal administration of 2 μL, 24 hours after irradiation, vs vehicle
Protocol: (§1) Eight-week-old male ddY mice are anesthetized with a mixture of ketamine (120 mg/kg) and xylazine (6 mg/kg) administered intramuscularly. After that, 0.15 mL of a photosensitizer, rose bengal (20 mg/kg) is administered into the tail vein, and a laser (wavelength 532 nm) is irradiated into a vein three optic disc diameters away from the optic disc in the mouse right eye to occlude the retinal vein and form a pathological condition. Laser irradiation is performed using an attachment of Micron4 (Phoenix Research lab., CA, USA), which is a fundus imaging device, under prescribed laser irradiation conditions (wavelength 532 nm, spot size 50 μm, irradiation time 5 seconds, laser power 50 mW). The vein is occluded by 10 to 15 laser irradiations per vein.
Immediately after laser irradiation, a TRPV4 inhibitor is administered, and 24 hours after irradiation, the eyeball is removed and a retinal histopathology specimen is prepared. Hematoxylin-eosin (HE) staining is performed to measure the thickness of the retinal inner nuclear layer (INL). Other stains (e.g., TUNEL stain) may be used for analysis as needed.
Administration of a TRPV4 inhibitor is performed by intravitreal administration (local administration). The conditions of the solution for administration are investigated in advance, and the concentration for intravitreal administration is determined. However, if the conditions for systemic administration are met, systemic administration may be included in the group composition. For intravitreal administration, the dosage should be 2 μL/eye as a single dose. For systemic administration, the number of doses and dosage should be determined after a separate consideration.
After a single intravitreal administration of 2 μL of a TRPV4 inhibitor (25 μM, 250 μM) or vehicle, whether the TRPV4 inhibitor restores the retinal edema is evaluated.

diabetic model mice = settings: cited from earlier work; for retinal edema: single intravitreal administration
[3] = system: mouse model of retinal vein occlusion; assay: Late drug administration 7 days after vascular occlusion: ocular blood flow (laser speckle); format: in vivo; settings: 250 μM, 2 μL intravitreal 7 days after occlusion, measured 1 day after administration
Protocol: as §1
(§2) Seven days after vascular occlusion, the retina is damaged, the retinal layer structure is thinned, the blood flow is reduced, and a retinal nonperfusion area exists. Whether the TRPV4 inhibitor restores this condition is evaluated. […]
(§3) Seven days after vascular occlusion, 2 μL of a TRPV4 inhibitor (250 μM) or vehicle is administered intravitreally. One day after administration (8 days after occlusion), the retinal layers are imaged using optical coherence tomography (OCT) and intraocular blood flow is measured using laser speckle.

[4] = system: tumor necrosis factor alpha (TNFα); assay: Expression of TNFα in retina of mouse retinal vein occlusion model by Western blotting; format: in vivo; settings: 250 μM, 2 μL intravitreal immediately after vascular occlusion, retina 1 day after occlusion
Protocol: as §1
Using the same method as in Example 3, the retinal veins of mice are occluded by laser irradiation into the veins of the eye.
Immediately after laser irradiation, 2 μL of a TRPV4 inhibitor (250 μM) is administered intravitreally. One day after vascular occlusion, the mice are euthanized by cervical dislocation, and then retinas isolated from removed eyeballs are evaluated by Western blotting.

[5] = system: mouse model of retinal vein occlusion; assay: Late drug administration 7 days after vascular occlusion: suppression of retinal thinning (OCT); format: in vivo; settings: 250 μM, 2 μL intravitreal 7 days after occlusion, measured 1 day after administration
Protocol: as §1, §2, §3

[6] = system: mouse model of retinal vein occlusion; assay: Late drug administration 7 days after vascular occlusion: retinal nonperfusion area (FITC-dextran flat mount); format: in vivo; settings: 250 μM, 2 μL intravitreal 7 days after occlusion, 1 day after administration
Protocol: as §1, §2
Seven days after vascular occlusion, 2 μL of a TRPV4 inhibitor (250 μM) or vehicle is administered intravitreally. One day after administration (8 days after occlusion), the retinal layers are imaged using optical coherence tomography (OCT) and intraocular blood flow is measured using laser speckle. […]

[7] = final concentration 10 μM, compared to VEGF-added group, 24 hours

CC(C)(O)c1cnc(N2C[C@@]3(CCC[C@](C)(Cn4cnc5ccc(C#N)cc54)C3)OC2=O)cn1 [Compound B, 1-(((5S,7S)-3-(5-(2-hydroxypropan-2-yl)pyrazin-2-yl)-7-methyl-2-oxo-1-oxa-3-azaspiro[4.5]decan-7-yl)methyl)-1H-benzo[d]imidazole-6-carbonitrile]
inhibition at 10 µM ([1]; 24 h): ≥ 30%
inhibition rate of the increase in the thickness of the retinal inner nuclear layer (INL) ([2]; 250 μM): 62%

VEGF
change of transepithelial electrical resistance (TEER values) ([1]; VEGF final concentration 10 ng/mL): decreases transepithelial electrical resistance

O=C(NC1(c2ccccc2)CC1)c1c(CN2CCC(N3CCCCC3)CC2)c(-c2cccc(C(F)(F)F)c2)nc2cc(Br)ccc12 [Compound C, 3-(1,4′-bipiperidin-1′-ylmethyl)-7-bromo-N-(1-phenylcyclopropyl)-2-[3-(trifluoromethyl)phenyl]-4-quinolinecarboxamide]
inhibition at 10 µM [1, 7]: ≥ 30%
inhibition rate of the increase in the thickness of the retinal inner nuclear layer (INL) ([2]; 250 μM): 59%
retinal thinning (diabetic model mice; Non-Patent Literature 11): not suppressed
retinal edema (diabetic model mice; Non-Patent Literature 11): it does not
retinal edema (diabetic model mice; Patent Literature 2): suppresses retinal edema

Cc1c(C(=O)Nc2cccc(C(F)(F)F)c2)cc(-c2ccccc2)n1CCCN1CCOCC1 [Compound D, N-(3-(trifluoromethyl)phenyl)-2-methyl-1-(3-morpholinopropyl)-5-phenyl-1H-pyrrole-3-carboxamide]
inhibition at 10 µM [1, 7]: ≥ 30%
inhibition rate of the increase in the thickness of the retinal inner nuclear layer (INL) ([2]; 250 μM): 64%

CC(C)C[C@H](NC(=O)c1cc2ccccc2s1)C(=O)N1CCN(C(=O)[C@H](CO)NS(=O)(=O)c2ccc(Cl)cc2Cl)CC1 [GSK1016790A]
change of transepithelial electrical resistance (TEER values) ([1]; GSK1016790A final concentration 10 nM): decreases transepithelial electrical resistance

O=C([C@H](O)c1cccc(Cl)c1)N1CCc2nc(C3(c4ccccc4)CC3)[nH]c(=O)c2C1 [Compound A, (R)-6-(2-(3-chlorophenyl)-2-hydroxyacetyl)-2-(1-phenylcyclopropyl)-5,6,7,8-tetrahydropyrido[4,3-d]pyrimidin-4(3H)-one]
inhibition rate of increased vascular permeability (TEER) ([1]; final concentration 1 μM, 10 μM, VEGF 10 ng/mL or GSK1016790A 10 nM added, 24 hours): ≥ 50%
improvement of ocular blood flow reduction rate [3]: ≥ 30%
inhibition rate of the increase in TNF expression [4]: ≥ 50%
inhibition rate of the increase in the thickness of the retinal inner nuclear layer (INL) ([2]; 25 μM): 40%
inhibition rate of the increase in the thickness of the retinal inner nuclear layer (INL) ([2]; 250 μM): 76%
inhibition of retinal thinning [5]: ≥ 30%
inhibition rate of nonperfusion areas in the retina [6]: ≥ 50%
